We go through three compounds from publication PMC7988154, “Mechanism of substrate transport and inhibition of the human LAT1-4F2hc amino acid transporter” (Cell Discovery, 2021).

The assay addresses T1, LAT1 (SLC7A5) (Homo sapiens, UniProt Q01650).
T1 construct: with 4F2hc (SLC3A2)
Put plainly: cryo-EM structure of the LAT1-4F2hc complex; IC50 from [3H]-L-leucine uptake in HT-29 cells. It counts as cell-based.

T1 sequence (Q01650 whole entry): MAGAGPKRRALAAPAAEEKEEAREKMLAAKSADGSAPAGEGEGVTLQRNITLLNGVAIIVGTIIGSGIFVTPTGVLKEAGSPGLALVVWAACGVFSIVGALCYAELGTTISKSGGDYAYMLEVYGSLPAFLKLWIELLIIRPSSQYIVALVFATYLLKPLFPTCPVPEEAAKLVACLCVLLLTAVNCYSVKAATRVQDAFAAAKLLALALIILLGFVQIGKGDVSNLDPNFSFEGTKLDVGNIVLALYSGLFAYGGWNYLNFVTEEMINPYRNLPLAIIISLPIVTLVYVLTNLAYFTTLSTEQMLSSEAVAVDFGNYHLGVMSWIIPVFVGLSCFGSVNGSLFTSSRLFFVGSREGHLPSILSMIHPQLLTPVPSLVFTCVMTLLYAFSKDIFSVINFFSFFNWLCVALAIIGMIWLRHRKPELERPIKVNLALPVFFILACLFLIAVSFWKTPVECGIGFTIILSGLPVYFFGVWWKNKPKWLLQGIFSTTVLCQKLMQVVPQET
T1 sequence (P08195 103-630 partner): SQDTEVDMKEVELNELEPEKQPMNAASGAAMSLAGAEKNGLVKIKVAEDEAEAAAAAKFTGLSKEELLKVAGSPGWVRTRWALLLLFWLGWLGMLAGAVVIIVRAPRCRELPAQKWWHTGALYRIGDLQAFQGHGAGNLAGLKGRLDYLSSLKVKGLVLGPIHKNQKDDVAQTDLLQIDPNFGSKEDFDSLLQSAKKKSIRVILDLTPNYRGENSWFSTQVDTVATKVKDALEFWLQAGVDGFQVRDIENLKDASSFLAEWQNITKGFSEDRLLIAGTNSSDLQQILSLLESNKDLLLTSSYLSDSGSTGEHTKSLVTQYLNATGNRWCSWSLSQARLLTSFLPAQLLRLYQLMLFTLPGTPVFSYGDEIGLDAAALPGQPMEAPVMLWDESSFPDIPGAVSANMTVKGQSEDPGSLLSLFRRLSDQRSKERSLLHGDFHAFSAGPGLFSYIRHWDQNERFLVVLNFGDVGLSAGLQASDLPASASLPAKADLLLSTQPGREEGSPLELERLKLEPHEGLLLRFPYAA

For `NC1(C(=O)O)CCc2ccc(OCc3cccc4ccccc34)cc2C1` (stereo not drawn) [JX-075], 165 nM corresponded to half-maximal inhibition (IC50).
The value for `NC1(C(=O)O)CCc2ccc(OCc3ccccc3-c3ccccc3)cc2C1` (stereo not drawn) [JX-078] was 121 nM; that for `NC1(C(=O)O)CCc2ccc(OCc3ccccc3-c3nc4ccccc4o3)cc2C1` (stereo not drawn) [JX-119] was 234 nM.

For orientation: IC50 means the concentration that inhibits the measured activity by half. High values mean weaker potency, low ones greater potency.
